In US12473310B2, “Vitamin D3 phosphate and pharmaceutically acceptable salts thereof, pharmaceutical compositions comprising the compound and methods for preparing the compound” (King's College London, priority 2020, dated 2025):

Legend:
[1] = skin permeation and deposition, automated Franz diffusion cell (Example 5); assay type: in vitro ADME; settings: PG formulation
Experimental: For the final formulation, 61.5 mg of cholecalciferol phosphate acid in 4.1 mL hexane was added into 1.435 mL DURO-TAK 87-2051 (51.5 w/v %) with 16.4 μL α-tocopherol and 20.5 μL diethylene glycol monoethyl ether. Likewise, 120 mg of cholecalciferol phosphate disodium salt in 35.2 mL MeOH:water (10:1) was added to 1.336 mL of DURO-TAK 87-2051 (51.5 w/v %) in 56 mL ethyl acetate with 32 mg of α-tocopherol and 48 μL diethylene glycol monoethyl ether. Each formulation was spread evenly on the 10×10 cm patch tray and left overnight to dry completely. Following the complete drying of the solvents, the adhesive layer was covered by the M3 Release layer (SCOTCHPAK 9755, UK), compressed, and then cut using a 34 mm circular manual die cutter (SCP Super Cutting Press, UK).
Subsequently, 1 mL aliquots were applied to the skin.
The automated Franz diffusion cell was used to investigate the permeation of cholecalciferol, cholecalciferol phosphate salt and cholecalciferol phosphate acid through porcine skin. Fresh white adult porcine ears were obtained from a local butcher (Ginger Pig, UK). Any damaged ears were discarded. The ears were removed from the carcass after hair removal. […] The collected receiver fluid was analysed by HPLC methods described previously.
At the end of the transport studies, the Franz cells were dismantled, and the donor solution was collected into bottles containing 10 mL of extraction fluid; MeOH for cholecalciferol, cholecalciferol phosphate acid and MeOH:water (90:10) for cholecalciferol phosphate salt, by wiping the surface of the skin and the inside of the donor compartment with two wet and then two dry cotton buds. […] Each collection was analysed by the HPLC method described above. Thus, the amount of each test agent on the surface of the skin, deposited in the skin, and passed into the receiver fluid was determined so that % mass recovery per cm^2 per skin could be calculated and drug deposition profiles could be obtained.

[2] = solubility in donor solution and thermodynamic activity (Table 4); assay type: physicochemical; settings: PG
[3] = chemical stability on storage over 4 weeks; assay type: physicochemical
Experimental: The chemical stability of cholecalciferol phosphate acid/disodium salt was assessed in three different conditions over a 4-week period. Aliquots of 2 mg for each sample was stored at room temperature, 4° C., and −20° C. in a glass bottle covered with foil. A 20 mL sample of MeOH and MeOH:water (90:10) was added to cholecalciferol phosphate acid and cholecalciferol phosphate disodium salt, and the concentration and purity were assessed every week by the HPLC method described previously. The peak area was used to calculate sample concentration and the gradient of the data points being used to calculate the degradation rate.

physchem = assay type: physicochemical; settings: % Recovery
Experimental: To validate the method of test agent recovery from the skin, solutions (1.0 mg/mL) of each vitamin D analogue were prepared in 100% PG. The precise concentrations in these samples were analysed by HPLC method described above. To assess the chemical stability of each test agent in the donor solutions used in the Franz cell experiments, 1.0 mg/mL of the samples prepared in 100% PG were incubated in a water bath at 37° C. for 24 h. In addition, to understand the chemical stability of each test agent in the extraction solvents used in the skin deposition studies, 1 mL of the drug sample in 100% PG was added into 10 mL of extraction fluid (MeOH for cholecalciferol, cholecalciferol phosphate acid, and MeOH:water, 90:10 for cholecalciferol phosphate disodium salt). Samples in PG (n=3) and samples in PG with the extraction fluid (n=3) were left in the water bath overnight at 37° C. and the sample concentration was analysed by the HPLC method described above. To assess whether the HPLC fluid had been impacted by any proteins that had leaked out of the skin, PG:water, 80:20 was added to donor and receiver chambers of porcine skin loaded Franz cells (n=3). A 5 mL sample of the receiver fluid was collected, and 25 μL of each test solution was added to this fluid and diluted to MeOH (1:1) and analysed by the HPLC method described previously. To verify the percentage of drug that could be recovered from the skin tissue, the skin sections were dermatomed (1 mm thickness) (n=3). The test solutions were spiked (50 μL) into a sample bottle containing the chopped dermatomed skin tissue. The samples containing the spiked drugs were left for 1 h for the drugs to absorb into the tissues. After the 1 h incubation period, 5 mL of extraction fluid (MeOH for cholecalciferol, cholecalciferol phosphate acid, and MeOH:water, 90:10 for cholecalciferol phosphate disodium salt) was added into each piece of the dermatomed skin tissue, then incubated in a shaking water bath for 1 h. The solutions were then tissue lysed by a tissue lyser for 40 min and homogenised by Ultra Turrax for 1 min and filtered using 0.45 μm syringe filters, centrifuged for 10 min at 13,000 rpm, and analysed by the HPLC method described above. In terms of cholecalciferol phosphate acid, after 1 h incubation and adding 5 mL extraction fluid, immediately the solutions with skin tissues were tissue lysed by a tissue lyser for 15 min. The solutions were then centrifuged for 10 min at 13,000 rpm and the supernatants were analysed by the HPLC method described above.

[4] = patch pre-formulation, saturated concentration in adhesive; assay type: physicochemical; settings: DURO-TAK 87-2051 adhesive
Experimental: To each solution, 175 μL of the transdermal adhesive DURO-TAK 87-2051 (51.5 w/v %) was added, and vortexed. Then 2.0 μL of α-tocopherol and 2.5 μL of diethylene glycol monoethyl ether were added and vortexed. The visual solubility was assessed.
To this solution 4 mg of α-tocopherol in 3 mL ethyl acetate was added and 167 μL of the transdermal adhesive DURO-TAK 87-2051 (51.5 w/v %) in 7 mL ethyl acetate with 6 μL diethylene glycol monoethyl ether was also added.
Each solution (3×3 cm) was cast onto the backing (3M™ Scotchpak™ Polyester Backing Film Laminate 9730, UK) to determine the clarity, and the saturation limit of the test agents in the adhesive mixtures.

## C=C1CC[C@H](OP(=O)(O)O)C/C1=C/C=C1\CCC[C@@]2(C)C1CC[C@@H]2[C@H](C)CCCC(C)C (stereo in doubt) [Cholecalciferol phosphate acid, cholecalciferol phosphate acid]
[1]
  fold higher transdermal permeation through the skin compared to cholecalciferol: about 9.34 fold
[2]
  Solubility in PG: 4690 µg/mL
[3]; 4° C.
  loss of the original compound over 4 weeks: 9.98%
  reduction of purity over 4 weeks: 27.18%
[3]; room temperature
  loss of the original compound over 4 weeks: 77.15%
  reduction of purity over 4 weeks: 72.2%
[3]; −20° C.
  reduction of purity over 4 weeks: 1.03%
physchem; chemical stability with extraction fluid
  recovery at 0.091 mg/mL: 92.2 ± 2.26%
physchem; chemical stability without extraction fluid
  recovery at 24 h, 1 mg/mL: 88.5 ± 3.35%
[4]
  saturated concentration in patch formulation (highest loading without precipitation): 5.02 w/w %
